Here are results for nine molecules from PubChem BioAssay AID248 (DTP/NCI, 2004).

Where “and” joins values, the source holds several entries; their conditions need not be identical. Equal values may be shown once. Inconclusive results and toxic doses are left out.

The subject of this assay is L1210 leukemia ip in BDF1 mice, survival T/C. Nature of the assay: NCI In Vivo Anticancer Drug Screen. Data for tumor model L1210 Leukemia (intraperitoneal) in B6D2F1 (BDF1) mice. The conditions noted are these: higher = longer survival. Summed up: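 Tumor was transplanted into mice, which were then dosed with test compound or vehicle alone. Survival was recorded for each group, and the treated figure was expressed relative to the control figure.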

[1] abbreviates: endpoint: mean survival time, dose: 50.0 mg/kg/injection, schedule: Q01DX001 (ip), vehicle: saline.
Setting [2] is: endpoint: mean survival time, dose: 100.0 mg/kg/injection, schedule: Q01DX001 (ip), vehicle: saline.
Setting [3] is: endpoint: mean survival time, dose: 200.0 mg/kg/injection, schedule: Q01DX001 (ip), vehicle: saline.
Where [4] appears, read: endpoint: mean survival time, dose: 400.0 mg/kg/injection, schedule: Q01DX001 (ip), vehicle: saline.

For the molecule `CCCCN(C)/N=N/c1nc[nH]c1C(N)=O`, the T/C by setting is: (endpoint: mean survival time, dose: 4.0 mg/kg/injection, schedule: Q01DX009 (ip), vehicle: other) 111 % of control; (endpoint: mean survival time, dose: 7.0 mg/kg/injection, schedule: Q01DX009 (ip), vehicle: other) 111 % of control; (endpoint: mean survival time, dose: 12.25 mg/kg/injection, schedule: Q01DX009 (ip), vehicle: saline with Tween-80) 117 % of control; (endpoint: mean survival time, dose: 17.6 mg/kg/injection, schedule: Q01DX009 (ip), vehicle: carboxymethylcellulose (CMC)) 109 % of control; (endpoint: mean survival time, dose: 20.0 mg/kg/injection, schedule: Q01DX Z (ip), vehicle: carboxymethylcellulose (CMC)) 124 % of control; (endpoint: mean survival time, dose: 26.0 mg/kg/injection, schedule: Q01DX009 (ip), vehicle: carboxymethylcellulose (CMC)) 120 % of control. The T/C reads like this: (endpoint: mean survival time, dose: 36.0 mg/kg/injection, schedule: Q01DX009 (ip), vehicle: other) 168 % of control; (endpoint: mean survival time, dose: 36.7 mg/kg/injection, schedule: Q04DX003 (ip), vehicle: saline with Tween-80) 117 % of control; (endpoint: mean survival time, dose: 40.0 mg/kg/injection, schedule: Q01DX009 (ip), vehicle: carboxymethylcellulose (CMC)) 124 % of control; (endpoint: mean survival time, dose: 40.0 mg/kg/injection, schedule: Q01DX Z (ip), vehicle: carboxymethylcellulose (CMC)) 164 % of control; (endpoint: mean survival time, dose: 49.0 mg/kg/injection, schedule: Q01DX009 (ip), vehicle: saline with Tween-80) 153 % of control; (endpoint: mean survival time, dose: 53.0 mg/kg/injection, schedule: Q01DX001 (ip), vehicle: saline with Tween-80) 107 % of control. Also, the T/C reads like this: (endpoint: mean survival time, dose: 60.0 mg/kg/injection, schedule: Q01DX009 (ip), vehicle: other) 154 % of control; (endpoint: mean survival time, dose: 73.5 mg/kg/injection, schedule: Q04DX003 (ip), vehicle: saline with Tween-80) 122 % of control; (endpoint: mean survival time, dose: 80.0 mg/kg/injection, schedule: Q01DX Z (ip), vehicle: carboxymethylcellulose (CMC)) 158 % of control; (endpoint: mean survival time, dose: 88.0 mg/kg/injection, schedule: Q01DX001 (ip), vehicle: carboxymethylcellulose (CMC)) 103 % of control; (endpoint: mean survival time, dose: 88.0 mg/kg/injection, schedule: Q01DX001 (ip), vehicle: other) 121 % of control; (endpoint: mean survival time, dose: 100.0 mg/kg/injection, schedule: Q01DX001 (ip), vehicle: other) 119 % of control. Further, the T/C is 90 % of control (endpoint: mean survival time, dose: 100.0 mg/kg/injection, schedule: Q01DX009 (ip), vehicle: other); 119 % of control (endpoint: mean survival time, dose: 106.0 mg/kg/injection, schedule: Q01DX001 (ip), vehicle: saline with Tween-80); 101 % of control (endpoint: mean survival time, dose: 120.0 mg/kg/injection, schedule: Q01DX Z (ip), vehicle: carboxymethylcellulose (CMC)); 103 % of control (endpoint: mean survival time, dose: 133.0 mg/kg/injection, schedule: Q01DX001 (ip), vehicle: carboxymethylcellulose (CMC)); 153 % of control (endpoint: mean survival time, dose: 147.0 mg/kg/injection, schedule: Q04DX003 (ip), vehicle: saline with Tween-80); 98 % of control (endpoint: mean survival time, dose: 160.0 mg/kg/injection, schedule: Q01DX009 (ip), vehicle: carboxymethylcellulose (CMC)). The T/C was 106 % of control (endpoint: mean survival time, dose: 200.0 mg/kg/injection, schedule: Q01DX001 (ip), vehicle: carboxymethylcellulose (CMC)); 122 % of control (endpoint: mean survival time, dose: 400.0 mg/kg/injection, schedule: Q01DX001 (ip), vehicle: other); 116 % of control (endpoint: median survival time, dose: 10.0 mg/kg/injection, schedule: Q01DX009 (ip), vehicle: steriod suspending solution); 122 % of control (endpoint: median survival time, dose: 20.0 mg/kg/injection, schedule: Q01DX009 (ip), vehicle: steriod suspending solution); 150 % of control and 155 % of control (endpoint: median survival time, dose: 40.0 mg/kg/injection, schedule: Q01DX009 (ip), vehicle: steriod suspending solution); 155 % of control and 166 % of control (endpoint: median survival time, dose: 80.0 mg/kg/injection, schedule: Q01DX009 (ip), vehicle: steriod suspending solution). Further, for the setting “endpoint: median survival time, dose: 160.0 mg/kg/injection, schedule: Q01DX009 (ip), vehicle: steriod suspending solution”, the T/C is 100 % of control.

`CC(=O)Nc1ccc2c(=O)cc[nH]c2n1`: the T/C by setting is: under setting [1], 89 % of control; under setting [2], 93 % of control; under setting [3], 106 % of control; under setting [4], 95 % of control.

With `CC(C)CCC(=O)OC1CCC2(C)C(=CCC3C2CCC2(C)C(O)CCC32)C1` (stereo not given), the T/C is, setting by setting: (endpoint: mean survival time, dose: 100.0 mg/kg/injection, schedule: Q01DX001 (ip), vehicle: saline with Tween-80) 92 % of control; (endpoint: mean survival time, dose: 200.0 mg/kg/injection, schedule: Q01DX001 (ip), vehicle: saline with Tween-80) 93 % of control; (endpoint: mean survival time, dose: 400.0 mg/kg/injection, schedule: Q01DX001 (ip), vehicle: saline with Tween-80) 101 % of control.

Take `Cc1ccc(C(=O)O)cc1S(=O)(=O)F`: the T/C (endpoint: mean survival time, dose: 100.0 mg/kg/injection, schedule: Q01DX009 (ip), vehicle: saline with Tween-80) was 96 % of control; the T/C (endpoint: mean survival time, dose: 100.0 mg/kg/injection, schedule: Q04DX003 (ip), vehicle: saline with Tween-80) was 107 % of control; the T/C (endpoint: mean survival time, dose: 200.0 mg/kg/injection, schedule: Q01DX009 (ip), vehicle: saline with Tween-80) is 96 % of control; the T/C (endpoint: mean survival time, dose: 200.0 mg/kg/injection, schedule: Q04DX003 (ip), vehicle: saline with Tween-80) is 91 % of control; the T/C (endpoint: mean survival time, dose: 400.0 mg/kg/injection, schedule: Q01DX009 (ip), vehicle: saline with Tween-80) was 90 % of control; the T/C (endpoint: mean survival time, dose: 400.0 mg/kg/injection, schedule: Q04DX003 (ip), vehicle: saline with Tween-80) was 91 % of control.

As for `CCOC(=O)C(=N\Nc1cccc(C)c1C)/C(C)=N\NC(N)=S`, the T/C by setting is: (endpoint: mean survival time, dose: 75.0 mg/kg/injection, schedule: Q01DX001 (ip), vehicle: saline) 94 % of control; (endpoint: mean survival time, dose: 150.0 mg/kg/injection, schedule: Q01DX001 (ip), vehicle: saline) 97 % of control; (endpoint: mean survival time, dose: 300.0 mg/kg/injection, schedule: Q01DX001 (ip), vehicle: saline) 97 % of control.

Turning to `COC1C(O)C(O)C(O)C(O)C1OS(=O)(=O)c1ccc(C)cc1` (stereo not given), the T/C (endpoint: mean survival time, dose: 375.0 mg/kg/injection, schedule: Q01DX001 (ip), vehicle: carboxymethylcellulose (CMC)) was 105 % of control; the T/C (endpoint: mean survival time, dose: 750.0 mg/kg/injection, schedule: Q01DX001 (ip), vehicle: carboxymethylcellulose (CMC)) is 107 % of control; the T/C (endpoint: mean survival time, dose: 1500.0 mg/kg/injection, schedule: Q01DX001 (ip), vehicle: carboxymethylcellulose (CMC)) was 98 % of control.

For the molecule `COc1ccc(O)c(CCCO)c1`, the T/C was 104 % of control under setting [1], 95 % of control under setting [2], 112 % of control under setting [3] and 95 % of control under setting [4].

Take `Cc1ccc(N=[N+]([O-])c2ccc(C)c(Br)c2)cc1Br`: the T/C was 102 % of control (endpoint: mean survival time, dose: 100.0 mg/kg/injection, schedule: Q04DX002 (ip), vehicle: Klucel (hydroxypropylcellulose) (HPC)); 98 % of control (endpoint: mean survival time, dose: 200.0 mg/kg/injection, schedule: Q04DX002 (ip), vehicle: Klucel (hydroxypropylcellulose) (HPC)); 98 % of control (endpoint: mean survival time, dose: 400.0 mg/kg/injection, schedule: Q04DX002 (ip), vehicle: Klucel (hydroxypropylcellulose) (HPC)).

Turning to `O=C(Nc1ccc(NC(=O)Nc2cccc(C3=NCCN3)c2)cc1)Nc1ccc(C2=NCCN2)cc1`, the T/C (endpoint: mean survival time, dose: 1.0 mg/kg/injection, schedule: Q01DX Z (ip), vehicle: carboxymethylcellulose (CMC)) was 88 % of control; the T/C (endpoint: mean survival time, dose: 2.0 mg/kg/injection, schedule: Q01DX Z (ip), vehicle: carboxymethylcellulose (CMC)) is 102 % of control; the T/C (endpoint: mean survival time, dose: 4.0 mg/kg/injection, schedule: Q01DX Z (ip), vehicle: carboxymethylcellulose (CMC)) is 95 % of control; the T/C (endpoint: mean survival time, dose: 8.0 mg/kg/injection, schedule: Q01DX Z (ip), vehicle: carboxymethylcellulose (CMC)) was 107 % of control; the T/C (endpoint: mean survival time, dose: 14.0 mg/kg/injection, schedule: Q01DX Z (oral), vehicle: carboxymethylcellulose (CMC)) is 108 % of control; the T/C (endpoint: mean survival time, dose: 18.0 mg/kg/injection, schedule: Q01DX Z (ip), vehicle: carboxymethylcellulose (CMC)) was 202 % of control. Besides, the T/C (endpoint: mean survival time, dose: 21.0 mg/kg/injection, schedule: Q01DX Z (oral), vehicle: carboxymethylcellulose (CMC)) was 109 % of control; the T/C (endpoint: mean survival time, dose: 32.0 mg/kg/injection, schedule: Q01DX Z (oral), vehicle: carboxymethylcellulose (CMC)) was 103 % of control; the T/C (endpoint: mean survival time, dose: 36.0 mg/kg/injection, schedule: Q01DX Z (ip), vehicle: carboxymethylcellulose (CMC)) is 116 % of control; the T/C (endpoint: mean survival time, dose: 48.0 mg/kg/injection, schedule: Q01DX Z (oral), vehicle: carboxymethylcellulose (CMC)) is 103 % of control; the T/C (endpoint: mean survival time, dose: 62.0 mg/kg/injection, schedule: Q01DX Z (ip), vehicle: saline) is 164 % of control; the T/C (endpoint: mean survival time, dose: 72.0 mg/kg/injection, schedule: Q01DX Z (oral), vehicle: carboxymethylcellulose (CMC)) was 122 % of control. Also, where the note is “endpoint: mean survival time, dose: 125.0 mg/kg/injection, schedule: Q01DX Z (ip), vehicle: saline”, the T/C is 91 % of control.
